Patent US11730717B1, “Melanin-inspired antimicrobial” (The Board of Regents for the Oklahoma Agricultural and …, priority 2020, dated 2023)
≈ marks a conversion by molar mass, not a printed value. Values belong to the compound of their own block, whether it stands above or below them.

How the values were obtained:
[1] = tested on: Cryptococcus neoformans serotype A strain H99; assay: Antifungal MIC assay; assay type: cell-based
Description: (§1) Cryptococcus neoformans serotype A strain H99 as well as Candida ablicans strain SC5314, were readily available in the lab. The stock of cells is stored at −80° C. to preserve the fungi and prevent contamination. The cells were grown and maintained in yeast extract-peptone-dextrose (YPD) media (Difco). Cryptococcus or Candida cells were incubated in YPD broth for 18 hrs at 30° C., in a shaking incubator. After the incubation period, they were washed three times in sterile phosphate-buffered saline (PBS) to remove all remaining residue of YPD. The cells were then quantified by using trypan blue dye exclusion in a hemocytometer.
(§2) C. neoformans were suspended in RPMI with MOPS, 0.165M, at a concentration of 0.5×10^3 cells/mL. RPMI MOPS media was added to a 96-well plate in a volume of 100 μL to every well, with the exception of column 1. An additional 80 μL of RPMI MOPS was added to column 4 for a total of 180 μL/per well. Amphotericin B or EIPE-1 was added to columns […] with a volume of 20 μL at a concentration of 1 mg/mL. Contents were mixed, then serially diluted 100 μL down the plate until column 11. The last 100 μL was discarded, leaving column 12 blank. C. neoformans was added at a volume of 100 μL per well from column 4 to column 12, so the final volume of the wells was 200 μL. Plates were incubated at 35° C. in a humid incubator for 48 hrs.

[2] = tested on: Candida albicans strain SC5314; assay: Antifungal MIC assay; assay type: cell-based; conditions: 35° C., 48 hrs, RPMI with MOPS
Description: as §1
as §2, with “C. albicans were suspended” for “C. neoformans were suspended”, “cells/mL. RPMI Mops media was” for “cells/mL. RPMI MOPS media was”, “μL/per well. EIPE-1 was” for “μL/per well. Amphotericin B or EIPE-1 was”, “blank. C. albicans was added” for “blank. C. neoformans was added”

HeLa cells = assay: Cytotoxicity, LDH leakage assay; assay type: cell-based; conditions: 24-hour exposure, 250 μg/mL (610 μM)
Description: HeLa cells were cultured in 96-well plates at 37° C. and 5% CO2 in Roswell Park Memorial Institute (RMPI) 1640 medium with 5% Fetal Bovine Serum (FBS). Once HeLa cells reached 95% confluency, the media was replaced with media containing various concentrations of EIPE-1, DBI or DMSO for 24 hours. Cell cytotoxicity was measured using the lactate dehydrogenase (LDH) leakage assay. Results were compared to maximum values of lysed cells in control wells and were graphed as percent relative cytotoxicity using Prism 5.0.
Host cell cytotoxicity against HeLa cells was examined for both DBI and EIPE-1 (FIG. 2B). LDH release was examined after 24-hour exposure to varying concentrations of DBI, DMSO and EIPE-1. […] Thus, EIPE-1 is relatively safe to use with respect to eukaryotic cells.

MRSA [3] = assay: Recoverable CFU after exposure to DBI; assay type: cell-based, Staphylococcus aureus; conditions: MRSA after 4 h of growth with DBI; DMSO control average 1.78×10^8
Description: To determine CFUs of PA and MRSA after exposure to DMSO, DBI, EIPE-1, Gentamicin or Methicillin, 10-fold serial dilutions were prepared in 96-well micro plates using multichannel pipettes. For each dilution, 25 ptL of each sample was pipetted onto a plate containing agar medium and incubated for 18 h at 37° C. The number of colonies for each dilution were counted and used to back calculate the number of bacteria per mL (CFU/mL) in each original bacterial culture.
After 4 h of growth, the resulting cultures were plated onto Mannitol Salts Agar (MSA). Decreased bacterial growth and decreased fermentation of the Mannitol (retention of the reddish hue of the MSA plate) could be seen in the MRSA culture exposed to DBI (FIG. 1A) which was confirmed with decreased recoverable CFUs (FIGS. 1B and 1C).

MRSA [4] = assay: Live/Dead staining and fluorescent microscopy; assay type: cell-based, Staphylococcus aureus; conditions: 16 μg/mL, 17 μM, 30 minutes; Syto 9 and propidium iodide
Description: MRSA was grown overnight in 10 mL of LB broth, sub-cultured (5 mL of overnight culture added to 20 mL LB) and grown for 3 h. Bacterial culture (150 μL) were removed and transferred to a 1.5 mL centrifuge tube, which was treated with DMSO, EIPE-1 (0.01 mg/mL) or DBI (0.01 mg/mL) for 30 minutes. Equal amounts of the two dyes (SYTO 9 dye, 3.34 mM in DMSO), and propidium iodide (20 mM in DMSO) were mixed. Then 0.5 μL of the dye mixture was added to each tube of treated MRSA cultures. Wet mounts were prepared on glass slides for imaging live and dead MRSA, and Differential Interference Contrast (DIC) images were obtained using a Leica DMI600B fluorescent microscope. To determine the percentage of bacteria alive and dead, the total bacteria in each condition were counted in 20 fields of view and graphed using Prism 5.0.
To address MRSA viability in response to EIPE-1 treatment, a Live/Dead staining and microscopy was utilized. MRSA was treated with either DBI or EIPE-1 (16 μg/mL, 17 μM each) for 30 minutes (DMSO was used as a negative solvent control) and then stained with the dyes, Syto™ 9 and propidium iodide.

[5] = tested on: methicillin resistant Staphylococcus aureus (MRSA) clinical isolate; assay: MIC by broth microdilution; assay type: cell-based; conditions: clinical isolate of MRSA from an adult CF patient; broth culture, 18 h at 37° C.
Description: The methicillin resistant Staphylococcus aureus (MRSA) and Pseudomonas aeruginosa (PA) strains used in this study are clinical isolates obtained from an adult CF patient at the Cystic Fibrosis Clinic at the OU Children's Hospital (Oklahoma City, Okla.). Escherichia coli (E. coli) and Enterococcus faecalis (E. faecalis) were obtained from American Type Culture Collection (ATCC). The strains were grown overnight with shaking at 37° C. (220 RPM) in 15 mL of Luria-Bertani (LB) broth. The overnight culture was sub-cultured the next day before use for the MIC experiments. All sub-cultures consisted of 1 mL of the overnight culture, mixed with 10 mL of Mueller Hinton broth. The working stock of the EIPE-1 and DBI was prepared by dissolving 1 mg of each in 1 mL of DMSO.
The minimum inhibitory concentrations (MICs) were determined by the broth microdilution method, following the guidelines of the Clinical and Laboratory Standards Institute (CLSI). Two-fold serial dilutions of EIPE-1, DBI, and Arm (starting with 1 mg/mL) were prepared in a 100 μL volume in 96-well microtiter plates. The dilution series included DMSO as a negative control. The bacterial culture […] was normalized to an OD600 of 0.2 and was then added to each well. Plates were incubated with shaking at 220 RPM at 37° C., and the MIC was determined based on the lowest concentration at which no visible growth of the bacterial isolate was observed.
In order to determine the MIC of EIPE-1 on MRSA, a culture of MRSA was grown overnight in Mueller Hinton broth (MHB) at 37° C., sub-cultured by a 1/100 dilution into MHB and dispensed into a 96 well culture block (900 μL of diluted culture in each well). To each well either DMSO or a serial dilution of EIPE-1 was added, then the culture was grown for 18 h at 37° C. The next day each well was tested for either growth or inhibition of growth by measuring of the OD^600 of the resulting culture. […] For comparison, the MIC of EIPE-1 was also determined against E. faecalis (8 μg/mL, 9 μM), confirming activity against Gram-positive bacteria.

MRSA [6] = assay: Kirby-Bauer disc diffusion assay; assay type: cell-based, Staphylococcus aureus
Description: The susceptibility of MRSA to EIPE-1 was determined by the Kirby-Bauer disc diffusion method. Using a cotton swab applicator, a lawn of the S. aureus clinical isolate was placed onto Mueller Hinton agar plates to cover the entire surface of the plate. Filter discs (size=6 mm) were added onto the bacterial lawn. EIPE-1, DBI, and DMSO (10 μL each) were then added onto the filter discs.
The efficacy of compound EIPE-1 was tested by the Kirby-Bauer disc assay. The Kirby-Bauer disc assay assesses the sensitivity of bacteria to antimicrobial agents. If the bacteria are sensitive to the antimicrobial being tested, then a zone of inhibition of bacterial growth is seen around the filter disc containing the antimicrobial. The Kirby-Bauer disc assay was used to test the antimicrobial efficacy of EIPE-1 against MRSA. EIPE-1 was reconstituted at 1 mg/mL in DMSO and serially diluted (10^−1 to 10^−5) after which 10 μL of each dilution (and DMSO as a solvent control) was added to a separate disc on an LB plate inoculated with a lawn of bacteria. The plates were incubated at 37° C. for 24 h, and the resulting radii zone sizes around each disc were then measured.

Minimum inhibitory concentration (MIC) for the isolate of C. neoformans ([1]; 35° C., 48 hrs, RPMI with MOPS): 0.6825 ± 0.2925 µg·mL
Minimum inhibitory concentration (MIC) for the isolate of C. albicans [2]: 0.5606 ± 0.1219 mg/L
Compound: C[C@@H]1[C@H](O)[C@@H](C)/C=C/C=C/C=C/C=C/C=C/C=C/C=C/[C@H](O[C@@H]2O[C@H](C)[C@@H](O)[C@H](N)[C@@H]2O)C[C@@H]2O[C@](O)(C[C@@H](O)C[C@@H](O)[C@H](O)CC[C@@H](O)C[C@@H](O)CC(=O)O[C@H]1C)C[C@H](O)[C@H]2C(=O)O [Amphotericin B, reference compound]
minimum inhibitory concentration average, C. neoformans ([1]; across four experiments): 0.6 mg/L (≈ 0.649 µM)

Compound: COC(=O)c1cc2c(Br)c(OC)c(OC)c(Br)c2n1C [DBI, methyl 4,7-dibromo-5,6-dimethoxy-1-methyl-1H-indole-2-carboxylate]
cytotoxicity (LDH release) (HeLa cells): 30%
recoverable CFUs (average) (MRSA [3]): 1.19×10^7 CFU/mL
Live/Dead staining (green = intact membrane, red = damaged membrane) (MRSA [4]): mostly stained green
minimum inhibitory concentration (MIC) [5]: could not be determined

Compound: CN(C)CCCOc1ccc(I)cc1 [arms]
antimicrobial activity independent of the DBI core (MRSA [6]): did not exhibit any antimicrobial activity
